Data as given in publication PMC6920827, “Characterization of the Expression and Functions of Two Odorant-Binding Proteins of Sitophilus zeamais Motschulsky (Coleoptera: Curculionoidea)” (Insects, 2019).
Entries after “also recorded” stand apart in the source; their conditions may differ. Read-outs that look alike come from different tables or passages of the source.

What was measured:
SzeaOBP1 = SzeaOBP1 (Sitophilus zeamais, UniProt A0A4P9CZ78); assay: Fluorescence competitive binding assay (1-NPN probe) with recombinant SzeaOBP1; conditions: for binding to SzeaOBP1, in words: fluorescence competitive binding
Procedure: (§1) Emission fluorescence spectra were recorded on a Fluoromax-4500 fluorescence spectrophotometer (Hitachi, Tokyo, Japan) at room temperature in right-angle configuration, with a 1 cm light-path quartz cuvette and 5 nm slits for both excitation and emission. The protein was dissolved in 50 mM Tris-HCl buffer (pH 7.4), and ligands were added as 1 mM methanol solutions. A methanol solution of N-Phenyl-1-naphthylamine (1-NPN) (1 mM) was used as the fluorescent probe, and chromatography-grade methanol was used as the solvent. For determination of the binding constants of the SzeaOBPs with the probe, the excitation wavelength was set at 337 nm, and the emission wavelength was increased from 370 to 500 nm for scanning. The target SzeaOBP proteins were diluted in Tris-HCl buffer (pH 7.4) to a final concentration of 2 μM. After the sample was added, the fluorescence intensity was allowed to stabilize (approximately 15 s), and the maximum fluorescence intensity was recorded; the binding constant between the protein and probe was determined. This process was repeated three times for each sample. Then, the ligands (odorant standard samples) were diluted with pure methanol for competitive binding analysis. The final concentration of each ligand was […]. The final concentration of ligands in the colorimetric dish increased by 2 μM upon adding the ligands one by one. […] The binding constants between the target SzeaOBP proteins and the ligands were determined. The fluorescence intensity was measured by adding 50 mM Tris-HCl buffer, SzeaOBP protein, and the fluorescence probe 1-NPN to the colorimetric dish for fluorescence measurement. The final concentration was 2 μM. When the fluorescence intensity was stable, the maximum fluorescence intensity was recorded, and then the ligands dissolved in methanol were added to the colorimetric dish one by one. The concentration increased from 2 μM, and the changes in fluorescence intensity were recorded. Each measurement was repeated three times.
(§2) To calculate the binding constants, the fluorescence intensity and ligand concentration were plotted using GraphPad Prism 5. Assuming that 1-NPN binds to the protein at a 1:1 ratio and that the protein was 100% active, the curve was linearized using a Scatchard plot.

SzeaOBP28 = SzeaOBP28 (Sitophilus zeamais, UniProt A0A4V1GPX2); assay: Fluorescence competitive binding assay (1-NPN probe) with recombinant SzeaOBP28; conditions: for binding to SzeaOBP28, in words: fluorescence competitive binding
Procedure: as §1, §2

adult S. zeamais = assay: Behavioural experiment in a Y-tube olfactometer, normal adults; type: in vivo, Sitophilus zeamais; conditions: normal insects, 10 min observation
Procedure: The behavioral experiments were designed to test the results for selected odorants. The odorant compounds used in behavioral experiments are from Table 1. To avoid the effects of temperature and light on the experiment, the evaluations were performed in a constant temperature and humidity (CTH) room at 28 ± 1 °C and 80% relative humidity under dim light supplied by a red fluorescent tube with no natural lighting. A Y-tube olfactometer system that was previously described by Yusuf and Takabayashi was used to test the attractiveness of different odorant treatments to adult maize weevils. The system comprised a central tube (10 cm long) and two lateral arms (each 15 cm long and 15 mm wide). The angles between the two arms were 75°. Each arm was connected to a glass chamber (200 mL capacity) holding the different odorants. The different parts of the device were connected in the following order: air pump, activated carbon filter, distilled water humidifier, odorant source device, gas flow meter, and Y-tube olfactometer. The parts were connected by Teflon tubes. Airflow through both arms was generated by applying air pressure, and the air was purified using a charcoal-filled gas wash bottle. The airflow through the arms of the Y-tube (150 mL/min/arm) was adjusted by using flow metres, which were positioned between the flasks and the Y-tube. A clean Y-tube was used for each test to avoid carryover of odorants.
Before bioassays, according to the experimental requirements, the odorant source was placed in the odorant source device, which was then ventilated for 15 min so that the odorant filled the tube to ensure accuracy of the test results. The antennae and appendages of the selected insects were verified to be intact, and the insects were confirmed to be active. The insects were introduced from the base of the main arm of the Y-tube olfactometer. The selected odorant was used for the treatment group, and a blank was used for the control group. A single adult S. zeamais insect was introduced into the Y-tube olfactometer at the entrance of the stem, with a maximum observation duration of 10 min per beetle, and the responses were considered positive when the insects reached at least 2 cm along the arm connected to the test chambers. […] Insects were used only once and then discarded. Each odorant was used to test 30 adult maize weevils, and the number of male and female insects per test was the same. Three groups of experiments were repeated for three times.

[1] = calculated from IC50 with K1-NPN 8.590 μM, protein and 1-NPN 2 μM, Tris-HCl pH 7.4, read-out: Ki SzeaOBP1
[2] = displacement of 1-NPN, protein and 1-NPN 2 μM, Tris-HCl pH 7.4, read-out: IC50 SzeaOBP1
[3] = calculated from IC50 with K1-NPN 7.214 μM, protein and 1-NPN 2 μM, Tris-HCl pH 7.4, read-out: Ki SzeaOP28
[4] = displacement of 1-NPN, protein and 1-NPN 2 μM, Tris-HCl pH 7.4, read-out: IC50 SzeaOP28

Sequence of SzeaOBP1 (A0A4P9CZ78 entry or part of it): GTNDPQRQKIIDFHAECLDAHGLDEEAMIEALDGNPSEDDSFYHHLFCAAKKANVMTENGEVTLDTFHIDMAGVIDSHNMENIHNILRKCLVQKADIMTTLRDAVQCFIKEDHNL
Sequence of SzeaOBP28 (A0A4V1GPX2 entry or part of it): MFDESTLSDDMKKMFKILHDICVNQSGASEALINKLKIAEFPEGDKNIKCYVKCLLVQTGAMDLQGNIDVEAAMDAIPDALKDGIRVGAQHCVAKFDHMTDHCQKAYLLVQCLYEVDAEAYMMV

| SMILES | Ki (SzeaOBP1; [1]) [µM] | IC50 (SzeaOBP1; [2]) [µM] | Ki (SzeaOBP28; [3]) [µM] | IC50 (SzeaOBP28; [4]) [µM] | also measured |
| --- | --- | --- | --- | --- | --- |
| CCCCCC=O [1-Pentanecarbaldehyde] | – | – | – | – | IC50 (SzeaOBP1): 6.07 ± 0.154 µM; Ki (SzeaOBP1): 5.18 ± 0.132 µM; IC50 (SzeaOBP28): 59.4 ± 1.21 µM; Ki (SzeaOBP28): 48.7 ± 0.852 µM |
| CCC(C)C=O (stereo not drawn) [2-Methylbutyraldehyde] | 4.2 ± 0.087 | 4.92 ± 0.102 | > 49.2 | > 60 | behavioural response (attraction) of male and female adults vs blank control (adult S. zeamais): Significant differences |
| CC(C)CC=O [3-Methylbutanal] | 6.51 ± 0.163 | 7.62 ± 0.191 | > 49.2 | > 60 | – |
| COc1cc(C=O)ccc1O [4-Hydroxy-3-methoxybenzaldehyde] | – | – | – | – | behavioural response (attraction) of male and female adults vs blank control (adult S. zeamais): responded strongly; also recorded: stimulated activity in a significantly higher number of normal male and female weevils than the control treatment; IC50 (SzeaOBP1): 4.37 ± 0.203 µM; Ki (SzeaOBP1): 3.73 ± 0.173 µM; IC50 (SzeaOBP28): 24.7 ± 2.34 µM; Ki (SzeaOBP28): 20.2 ± 1.92 µM; binding to SzeaOBP28, in words (SzeaOBP28): pronounced binding affinity |
| CC(=O)CCC=C(C)C [6-Methyl-5-hepten-2-one] | – | – | – | – | IC50 (SzeaOBP1): 6.5 ± 0.15 µM; Ki (SzeaOBP1): 5.55 ± 0.128 µM; IC50 (SzeaOBP28): 45.8 ± 1.23 µM; Ki (SzeaOBP28): 37.6 ± 1.01 µM |
| CC1=CC[C@@H]2C[C@H]1C2(C)C [(+)-a-Pinene] | > 51.2 | > 60 | > 49.2 | > 60 | binding to SzeaOBP1, in words (SzeaOBP1): did not bind; binding to SzeaOBP28, in words (SzeaOBP28): did not bind |
| CC(=O)O [Acetic acid (glacial)] | 15.7 ± 0.717 | 18.4 ± 0.84 | > 49.2 | > 60 | – |
| CC(C)=O [Acetone] | 4.54 ± 0.172 | 5.32 ± 0.201 | 39.8 ± 0.731 | 48.6 ± 0.861 | – |
| O=Cc1ccccc1 [Benzaldehyde] | – | – | – | – | IC50 (SzeaOBP1): 5.2 ± 0.092 µM; Ki (SzeaOBP1): 4.44 ± 0.079 µM; IC50 (SzeaOBP28): > 60 µM; Ki (SzeaOBP28): > 49.2 µM |
| COCCOC(=O)c1ccccc1C(=O)OCCOC [Bis(methylglycol) phthalate, Bis(2-methoxyethyl) phthalate] | – | – | – | – | IC50 (SzeaOBP1): 4.76 ± 0.147 µM; Ki (SzeaOBP1): 4.07 ± 0.125 µM; IC50 (SzeaOBP28): 38.87 ± 0.2 µM; Ki (SzeaOBP28): 31.86 ± 0.164 µM |
| CCCCCCCCO [Capryl alcohol] | 6.67 ± 0.199 | 7.81 ± 0.233 | > 49.2 | > 60 | – |
| CCCCCCCCCCCCCCCCO [Cetanol] | 2.75 ± 0.139 | 3.22 ± 0.162 | > 49.2 | > 60 | behavioural response (attraction) of male and female adults vs blank control (adult S. zeamais): Significant differences; binding to SzeaOBP1, in words (SzeaOBP1): extremely high binding affinity |
| CCCCCCCCCC=O [Decanal] | > 51.2 | > 60 | > 49.2 | > 60 | binding to SzeaOBP1, in words (SzeaOBP1): did not bind; binding to SzeaOBP28, in words (SzeaOBP28): did not bind |
| CCCCCCC=O [Heptaldehyde] | 4.87 ± 0.111 | 5.71 ± 0.13 | > 49.2 | > 60 | – |
| CC(C)C=O [Isobutyraldehyde] | 4.26 ± 0.138 | 4.99 ± 0.162 | > 49.2 | > 60 | – |
| CCCCCCO [Ligand 1-Hexanol, 1-Hexanol] | 4.67 ± 0.159 | 5.47 ± 0.186 | > 49.2 | > 60 | – |
| c1ccc(Nc2cccc3ccccc23)cc1 [Ligand 1-NPN, N-Phenyl-1-naphthylamine, reference compound] | – | – | – | – | Kd (SzeaOBP1): 8.59 µM; Kd (SzeaOBP28): 7.21 µM |
| CCCCCCCCCO [Ligand 1-Nonanol, 1-Nonanol] | 6.94 ± 0.234 | 8.13 ± 0.274 | > 49.2 | > 60 | – |
| CCCC(C)=O [Ligand 2-Pentanone, 2-Pentanone] | – | – | – | – | IC50 (SzeaOBP1): 11.6 ± 0.312 µM; Ki (SzeaOBP1): 9.92 ± 0.267 µM; IC50 (SzeaOBP28): > 60 µM; Ki (SzeaOBP28): > 49.2 µM |
| CCCCC/C=C\C/C=C\CCCCCCCC(=O)O [Linoleic acid] | > 51.2 | > 60 | > 49.2 | > 60 | binding to SzeaOBP1, in words (SzeaOBP1): did not bind; binding to SzeaOBP28, in words (SzeaOBP28): did not bind |
| Cc1occc(=O)c1O [Maltol (3-hydroxy-2-methyl-4-pyrone)] | 5.28 ± 0.333 | 6.18 ± 0.39 | > 49.2 | > 60 | – |
| C=CC(=C)CCC=C(C)C [Myrcene (stabilized with BHT)] | 30.3 ± 0.798 | 35.5 ± 0.931 | > 49.2 | > 60 | – |
| CCCCCCCCCCCCCCCC [N-Hexadecane, N-hexadecane] | > 51.2 | > 60 | > 49.2 | > 60 | – |
| CCCCCCCCC=O [Nonanal] | 4.42 ± 0.095 | 5.18 ± 0.111 | 48.2 ± 1.1 | 58.9 ± 1.34 | – |
| CCCCCCCCCCCCCCCC(=O)O [Palmitic Acid, Palmitic acid] | 24.2 ± 1.78 | 28.3 ± 2.08 | 40.8 ± 1.41 | 49.7 ± 1.72 | – |
| CCCCCCCCCCCCCCC [Pentadecane] | > 51.2 | > 60 | > 49.2 | > 60 | – |
| CCCCC=O [Valeraldehyde] | 4.88 ± 0.103 | 5.71 ± 0.121 | > 49.2 | > 60 | behavioural response (attraction) of male and female adults vs blank control (adult S. zeamais): responded strongly |
| CCCCCCCC=O [n-Octanaldehyde] | 3.22 ± 0.103 | 3.77 ± 0.12 | > 49.2 | > 60 | behavioural response (attraction) of male and female adults vs blank control (adult S. zeamais): no obvious effect |
